In patent US6664231B1, “Anti-fungal peptides” (priority 1993, dated 2003):
Square brackets hold non-standard residues; d marks the D form. Ends that are not written are not given here. Peptide text beside a SMILES is read from it. Phe(4-NH2) = Nc1ccc(C[C@H](N)C(=O)O)cc1; 1Nal = N[C@@H](Cc1cccc2ccccc12)C(=O)O; d1Nal = N[C@H](Cc1cccc2ccccc12)C(=O)O; d2Nal = N[C@H](Cc1ccc2ccccc2c1)C(=O)O; Cha = N[C@@H](CC1CCCCC1)C(=O)O; Aib = CC(C)(N)C(=O)O; Sar = CNCC(=O)O

Tested on: C. albicans (CA-1, Strain SLU-1)
Experiment: Radial diffusion assay
Format: cell-based, Candida albicans
Conditions: HPLC-purified peptide; nanomoles required to achieve a net 30 mm^2 zone (log titration curve)
Experimental: In the radial diffusion assay procedures, the CA-1 cultures and peptide solutions were prepared as in the broth assay procedure described above. Ten mL of molten underlayer agarose comprising 3% Sabouraud Dextrose broth, 1% agarose (Pharmacia, Piscataway, N.J.), 0.02% Tween 20, and 10 mM sodium phosphate at pH 7.4, was added to polystyrene tubes and maintained in a 56° C. water bath until the addition of yeast. Tubes were cooled to approximately 45° C., yeast were added to give a final concentration of 1×10^6 CFU/mL, and the tubes were mixed again by inverting. The contents were poured into level square petri dishes and distributed evenly. […] A series of wells were punched into the hardened agarose using a sterile 3 mm punch attached to a vacuum apparatus.
Peptides to be assayed were 2-fold serially diluted in Dulbecco's PBS (D-PBS) starting from a concentration of approximately 1 mg/mL. Five μL of each dilution were added to each well and the plates were incubated at 37° C. for 3 hours. An overlayer of 10 mL of molten agarose comprising 6% Sabouraud Dextrose broth, 1% agarose, and 10 mM sodium phosphate, pH 7.4, (at approximately 45° C.) was then added and plates were incubated overnight at 37° C. Following this overnight incubation, a dilute Coomassie solution was poured into the plates and allowed to stain for 24 hours.
Clear zones of growth inhibition around each well were measured with calipers. The actual area of growth inhibition (mm^2) was calculated by subtracting the area of the well. Table 1 below sets out the results of the radial diffusion assays for tested peptides in terms of the number of picomoles (pmol) of peptide required to establish a 30 mm^2 area of growth inhibition calculated by PROBIT analysis (e.g., calculated from regression of the linear portion of log-concentration dose-response curve, log pmol/well vs. net area of inhibition).

Compound | Plate Assay (nmol), pure peptide activity [nmol]
H-VKWLIQLFHKK-NH2 [Peptide 289] | 0.68
H-KWLIQL-NH2 [compound 315] | >12.853
CC[C@H](C)[C@H](NC(=O)[C@H](CC(C)C)NC(=O)[C@@H](N)Cc1c[nH]c2ccccc12)C(=O)N[C@@H](CCC(N)=O)C(=O)N[C@@H](CC(C)C)C(=O)N[C@@H](Cc1ccccc1)C(=O)N[C@@H](Cc1c[nH]cn1)C(=O)N[C@@H](CCCCN)C(N)=O [Peptide 303] | 1.306

Same assay, conditions: crude peptide; nanomoles required to achieve a net 30 mm^2 zone (log titration curve)

Compound | Plate Assay (nmol), crude peptide activity [nmol]
H-SKVKWLIQLFHK-NH2 [Peptide 285] | >3.024
H-SKVKWLIQ-NH2 [Peptide 299] | >8.768
H-VKWLIQLFHKK-NH2 [Peptide 289] | 1.542
H-KWLIQL-NH2 [compound 315] | >5.069
CC[C@H](C)[C@H](NC(=O)[C@H](CC(C)C)NC(=O)[C@@H](N)Cc1c[nH]c2ccccc12)C(=O)N[C@@H](CCC(N)=O)C(=O)N[C@@H](CC(C)C)C(=O)N[C@@H](Cc1ccccc1)C(=O)N[C@@H](Cc1c[nH]cn1)C(=O)N[C@@H](CCCCN)C(N)=O [Peptide 303] | >4.694
H-SKVKWLIQLF-NH2 [Peptide 290] | >2.233

Same assay, conditions: pmoles of peptide added to well to achieve a 30 mm^2 zone, PROBIT analysis; crude or purified (P′) peptide

Compound | C. albicans pmol/30 mm^2 zone
CC[C@H](C)[C@H](NC(=O)[C@H](CC(C)C)NC(=O)C(C)(C)NC(=O)CNC(=O)[C@@H](NC(=O)[C@H](CCCCN)NC(=O)[C@H](CO)NC(=O)[C@@H](N)CCCCN)C(C)C)C(=O)N[C@@H](CCC(N)=O)C(=O)N[C@@H](CC(C)C)C(=O)N[C@@H](Cc1ccccc1)C(=O)N[C@@H](Cc1c[nH]cn1)C(=O)N[C@@H](CCCCN)C(=O)N[C@@H](CCCCN)C(N)=O [XMP.257] (H-KSKVG[Aib]LIQLFHKK-NH2) | 1,321 pmol/30 mm^2 zone
H-KSKVGWLIQFFHKK-NH2 [XMP.113] | 947 pmol/30 mm^2 zone
CC[C@H](C)[C@H](NC(=O)[C@H](CC(C)C)NC(=O)[C@H](Cc1c[nH]c2ccccc12)NC(=O)[C@H](Cc1ccc(N)cc1)NC(=O)[C@@H](NC(=O)[C@H](CCCCN)NC(=O)[C@H](CO)NC(=O)[C@@H](N)CCCCN)C(C)C)C(=O)N[C@@H](Cc1ccc(N)cc1)C(=O)N[C@@H](CC(C)C)C(=O)N[C@@H](Cc1ccccc1)C(=O)N[C@@H](Cc1c[nH]cn1)C(=O)N[C@@H](CCCCN)C(=O)N[C@@H](CCCCN)C(N)=O [XMP.238] (H-KSKV[Phe(4-NH2)]WLI[Phe(4-NH2)]LFHKK-NH2) | 2,702 pmol/30 mm^2 zone
H-KSKVGWLIYLFHKK-NH2 [XMP.125] | >3150 pmol/30 mm^2 zone
CC[C@H](C)[C@H](NC(=O)[C@H](CC(C)C)NC(=O)[C@H](CC1CCCCC1)NC(=O)CNC(=O)[C@@H](NC(=O)[C@H](CCCCN)NC(=O)[C@H](CO)NC(=O)[C@@H](N)CCCCN)C(C)C)C(=O)N[C@@H](CCC(N)=O)C(=O)N[C@@H](CC(C)C)C(=O)N[C@@H](Cc1ccccc1)C(=O)N[C@@H](Cc1c[nH]cn1)C(=O)N[C@@H](CCCCN)C(=O)N[C@@H](CCCCN)C(N)=O [XMP.144] (H-KSKVG[Cha]LIQLFHKK-NH2) | 695 pmol/30 mm^2 zone
H-KVKWLIQLF-NH2 [XMP.295] | >1,977 pmol/30 mm^2 zone
H-KSAVGWLIQLFHKK-NH2 [XMP.33] | 603 pmol/30 mm^2 zone
KKVLIQLKK-NH2 [XMP.343] | 245 pmol/30 mm^2 zone
H-KSKVGWLIQLFWKK-NH2 [XMP.107] | >2796 pmol/30 mm^2 zone
XMP.359: CD - 153-161 (SEQ ID NO:190) ([dC]WLIQLFHKK) | b (No detectable activity up to 5 μg/well)
H-KWLIQLF-NH2 [XMP.308] | b (No detectable activity up to 5 μg/well)
CC[C@H](C)[C@H](NC(=O)[C@H](CC(C)C)NC(=O)[C@@H](Cc1cccc2ccccc12)NC(=O)CNC(=O)[C@@H](NC(=O)[C@H](CCCCN)NC(=O)[C@H](CO)NC(=O)[C@@H](N)CCCCN)C(C)C)C(=O)N[C@@H](CCC(N)=O)C(=O)N[C@@H](CC(C)C)C(=O)N[C@@H](Cc1ccccc1)C(=O)N[C@@H](Cc1c[nH]cn1)C(=O)N[C@@H](CCCCN)C(=O)N[C@@H](CCCCN)C(N)=O [XMP.129] (H-KSKVG[d1Nal]LIQLFHKK-NH2) | 2117 pmol/30 mm^2 zone
H-KSKVAWLIQLFHKK-NH2 [XMP.35] | 442 pmol/30 mm^2 zone
CC[C@H](C)[C@H](NC(=O)[C@H](CC(C)C)NC(=O)CN(C)C(=O)CNC(=O)[C@@H](NC(=O)[C@H](CCCCN)NC(=O)[C@H](CO)NC(=O)[C@@H](N)CCCCN)C(C)C)C(=O)N[C@@H](CCC(N)=O)C(=O)N[C@@H](CC(C)C)C(=O)N[C@@H](Cc1ccccc1)C(=O)N[C@@H](Cc1c[nH]cn1)C(=O)N[C@@H](CCCCN)C(=O)N[C@@H](CCCCN)C(N)=O [XMP.259] (H-KSKVG[Sar]LIQLFHKK-NH2) | 2,117 pmol/30 mm^2 zone
CC[C@H](C)[C@H](NC(=O)[C@H](CC(C)C)NC(=O)[C@@H](Cc1ccc2ccccc2c1)NC(=O)CNC(=O)[C@@H](NC(=O)[C@H](CCCCN)NC(=O)[C@H](CO)NC(=O)[C@@H](N)CCCCN)C(C)C)C(=O)N[C@@H](CC(C)C)C(=O)N[C@@H](CC(C)C)C(=O)N[C@@H](Cc1ccccc1)C(=O)N[C@@H](Cc1c[nH]cn1)C(=O)N[C@@H](CCCCN)C(=O)N[C@@H](CCCCN)C(N)=O [XMP.242] (H-KSKVG[d2Nal]LILLFHKK-NH2) | 359 pmol/30 mm^2 zone
XMP.409: S - K - 153-157 - K - K, A @ 154 (L) (SEQ ID NO:240) (SKWAIQLKK) | 795 pmol/30 mm^2 zone
CC[C@H](C)[C@H](NC(=O)[C@H](CC(C)C)NC(=O)[C@H](Cc1c[nH]c2ccccc12)NC(=O)CNC(=O)[C@@H](NC(=O)[C@H](CCCCN)NC(=O)[C@H](CO)NC(=O)[C@@H](N)CCCCN)C(C)C)C(=O)N[C@@H](CCC(N)=O)C(=O)N[C@@H](CC(C)C)C(=O)N[C@@H](Cc1c[nH]c2ccccc12)C(=O)N[C@@H](Cc1c[nH]cn1)C(=O)N[C@@H](CCCCN)C(=O)N[C@@H](Cc1cccc2ccccc12)C(N)=O [XMP.230] (H-KSKVGWLIQLWHK[1Nal]-NH2) | >2,386 pmol/30 mm^2 zone
CC[C@H](C)[C@H](NC(=O)[C@H](CC(C)C)NC(=O)[C@@H](Cc1ccc2ccccc2c1)NC(=O)CNC(=O)[C@@H](NC(=O)[C@H](CCCCN)NC(=O)[C@H](CO)NC(=O)[C@@H](N)CCCCN)C(C)C)C(=O)N[C@@H](CC(C)C)C(=O)N[C@@H](CC(C)C)C(=O)N[C@@H](Cc1c[nH]c2ccccc12)C(=O)N[C@@H](Cc1c[nH]cn1)C(=O)N[C@@H](CCCCN)C(=O)N[C@@H](CCCCN)C(N)=O [XMP.244] (H-KSKVG[d2Nal]LILLWHKK-NH2) | 859 pmol/30 mm^2 zone
CC[C@H](C)[C@H](NC(=O)[C@H](CC(C)C)NC(=O)[C@H](Cc1c[nH]c2ccccc12)NC(=O)CNC(=O)[C@@H](NC(=O)[C@H](CCCCN)NC(=O)[C@H](CO)NC(=O)[C@@H](N)CCCCN)C(C)C)C(=O)N[C@@H](Cc1ccc(N)cc1)C(=O)N[C@@H](CC(C)C)C(=O)N[C@@H](Cc1c[nH]c2ccccc12)C(=O)N[C@@H](Cc1c[nH]cn1)C(=O)N[C@@H](CCCCN)C(=O)N[C@@H](CCCCN)C(N)=O [XMP.239] (H-KSKVGWLI[Phe(4-NH2)]LWHKK-NH2) | >2,802 pmol/30 mm^2 zone
CC[C@H](C)[C@H](NC(=O)[C@H](CC(C)C)NC(=O)[C@H](Cc1c[nH]c2ccccc12)NC(=O)[C@@H](N)CCCCN)C(=O)N[C@@H](CCC(N)=O)C(=O)N[C@@H](CC(C)C)C(=O)N[C@@H](Cc1ccccc1)C(=O)N[C@@H](Cc1c[nH]cn1)C(=O)N[C@@H](CCCCN)C(=O)N[C@@H](CCCCN)C(N)=O [XMP.293] | 1,156 pmol/30 mm^2 zone
H-VKWLIQ-NH2 [XMP.314] | >13,497 pmol/30 mm^2 zone
H-GWLIQLFHKKIESALRNKMNS-NH2 [XMP.55] | >2666 pmol/30 mm^2 zone
H-KSKVGWLIQLFHAK-NH2 [XMP.43] | 785 pmol/30 mm^2 zone
H-KVKWLIQ-NH2 [XMP.306] | >10,485 pmol/30 mm^2 zone
H-KSKVGWLIQLFHKA-NH2 [XMP.44] | 578 pmol/30 mm^2 zone
H-KSKVFWLIQLFHKK-NH2 [XMP.95] | >1398 pmol/30 mm^2 zone
H-KSKVKFLIKLFHKK-NH2 [XMP.283] | 1,336 pmol/30 mm^2 zone
H-KSKVKWLIKLFFKFKSKVKWLIKLFFKF-NH2 [XMP.101] | >1040 pmol/30 mm^2 zone
H-KSKVGKLIQLFHKK-NH2 [XMP.135] | 428 pmol/30 mm^2 zone

Same assay, conditions: pmoles of peptide added to well to achieve a 30 mm^2 zone, PROBIT analysis; crude or purified (P′) peptide; listed as XMP.293P′

Compound | C. albicans pmol/30 mm^2 zone [pmol/30 mm^2 zone]
CC[C@H](C)[C@H](NC(=O)[C@H](CC(C)C)NC(=O)[C@H](Cc1c[nH]c2ccccc12)NC(=O)[C@@H](N)CCCCN)C(=O)N[C@@H](CCC(N)=O)C(=O)N[C@@H](CC(C)C)C(=O)N[C@@H](Cc1ccccc1)C(=O)N[C@@H](Cc1c[nH]cn1)C(=O)N[C@@H](CCCCN)C(=O)N[C@@H](CCCCN)C(N)=O [XMP.293] | 215

Same assay, conditions: pmoles of peptide added to well to achieve a 30 mm^2 zone, PROBIT analysis; crude or purified (P′) peptide; listed as XMP.295P′

Compound | C. albicans pmol/30 mm^2 zone
H-KVKWLIQLF-NH2 [XMP.295] | >2,612 pmol/30 mm^2 zone
